Test results as given in US10441587B2, “Treatment of lung cancer with inhibitors of glutaminase” (Calithera Biosciences, Inc., priority 2015, dated 2019).

Legend:
[1] = test system: H838 (CALA); assay: Sensitivity of NSCLC cell line to CB-839; type: cell-based; conditions: KRAS wt, AMP, EGFR wt, n 3
[2] = test system: ChaGo-K1 (CALA); assay: Sensitivity of NSCLC cell line to CB-839; type: cell-based; conditions: KRAS wt, no amp, EGFR wt, n 3
[3] = test system: H2085 (CALA); assay: Sensitivity of NSCLC cell line to CB-839; type: cell-based; conditions: KRAS wt, no amp, EGFR no data, n 3
[4] = test system: A549 (CALA); assay: Sensitivity of NSCLC cell line to CB-839; type: cell-based; conditions: KRAS G12S, no amp, EGFR wt, n 2
[5] = test system: H1703 (CALA); assay: Sensitivity of NSCLC cell line to CB-839; type: cell-based; conditions: KRAS wt, AMP, EGFR wt, n 4
[6] = test system: H1568 (CALA); assay: Sensitivity of NSCLC cell line to CB-839; type: cell-based; conditions: KRAS wt, no amp, EGFR wt, n 4
[7] = test system: H2030 (CALA); assay: Sensitivity of NSCLC cell line to CB-839; type: cell-based; conditions: KRAS G12C, no amp, EGFR wt, n 3
[8] = test system: H1437 (CALA); assay: Sensitivity of NSCLC cell line to CB-839; type: cell-based; conditions: KRAS wt, no amp, EGFR wt, n 3
[9] = test system: H358 (CALA); assay: Sensitivity of NSCLC cell line to CB-839; type: cell-based; conditions: KRAS G12C, no amp, EGFR wt, n 4
[10] = test system: H226 (CALA); assay: Sensitivity of NSCLC cell line to CB-839; type: cell-based; conditions: KRAS wt, no amp, EGFR wt, n 4
[11] = test system: H1975 (CALA); assay: Sensitivity of NSCLC cell line to CB-839; type: cell-based; conditions: KRAS wt, no amp, EGFR L858R/T790M, n 4
[12] = test system: H23 (CALA); assay: Sensitivity of NSCLC cell line to CB-839; type: cell-based; conditions: KRAS G12C, AMP, EGFR wt, n 4
[13] = test system: H2122 (CALA); assay: Sensitivity of NSCLC cell line to CB-839; type: cell-based; conditions: KRAS G12C, no amp, EGFR wt, n 5
[14] = test system: H2073 (CALA); assay: Sensitivity of NSCLC cell line to CB-839; type: cell-based; conditions: KRAS wt, no amp, EGFR wt, n 3
[15] = test system: H1299 (CALA); assay: Sensitivity of NSCLC cell line to CB-839; type: cell-based; conditions: KRAS wt, no amp, EGFR wt, n 3
[16] = test system: H1563 (CALA); assay: Sensitivity of NSCLC cell line to CB-839; type: cell-based; conditions: KRAS wt, no amp, EGFR wt, n 4
[17] = test system: H2023 (CALA); assay: Sensitivity of NSCLC cell line to CB-839; type: cell-based; conditions: KRAS wt, no amp, EGFR wt, n 3
[18] = test system: H2122 lung adenocarcinoma xenograft; assay: Lung adenocarcinoma xenograft efficacy study; type: in vivo; conditions: H2122 xenograft in scid/beige mice; 200 mg/kg orally BID for 23 days; vs vehicle
Protocol: Female scid/beige mice (n═20) age 6-8 weeks were implanted subcutaneously with 1×10^7 H2122 lung adenocarcinoma cells per mouse suspended in PBS. Mice were randomized into the following two groups of n=10 mice/group: 1) Vehicle control (25% Hydroxypropyl-β-cyclodextrin) and 2) Compound 670 dosed orally at 200 mg/kg (formulated at 20 mg/mL in 25% HP-β-CD). For both groups, dosing was initiated 24 hours post-implant and continued orally BID for 23 days. Tumors were measured with calipers three times per week and tumor volume calculated using the formula tumor volume (mm^3)=(a×b^2/2) where ‘b’ is the smallest diameter and ‘a’ is the largest perpendicular diameter. **P-value<0.01 (Two-sided T-test).

[19] = test system: H647 (CALA); assay: Sensitivity of NSCLC cell line to CB-839; type: cell-based; conditions: KRAS G13D, no amp, EGFR wt, n 3
[20] = test system: H2347 (CALA); assay: Sensitivity of NSCLC cell line to CB-839; type: cell-based; conditions: KRAS L19F, no amp, EGFR wt, n 3
[21] = test system: H1693 (CALA); assay: Sensitivity of NSCLC cell line to CB-839; type: cell-based; conditions: KRAS wt, no amp, EGFR wt, n 3
[22] = test system: HCC827 (CALA); assay: Sensitivity of NSCLC cell line to CB-839; type: cell-based; conditions: KRAS wt, no amp, EGFR exon 19 deletion, n 3
[23] = test system: H441 (CALA); assay: Sensitivity of NSCLC cell line to CB-839; type: cell-based; conditions: KRAS G13V, AMP, EGFR wt, n 3
[24] = test system: H661 (CALA); assay: Sensitivity of NSCLC cell line to CB-839; type: cell-based; conditions: KRAS wt, AMP, EGFR wt, n 3
[25] = test system: non-small cell lung cancer cell lines exhibiting a KRAS mutation; assay: Sensitivity of non-small cell lung cancer cell lines by mutation status; type: cell-based; conditions: KRAS-mutant vs wild-type non-small cell lung cancer cell lines; arrested growth and/or cell death
[26] = test system: H1650 (CALA); assay: Sensitivity of NSCLC cell line to CB-839; type: cell-based; conditions: KRAS wt, no amp, EGFR exon 19 deletion, n 1

In the case of `O=C(Cc1cccc(OC(F)(F)F)c1)Nc1ccc(CCCCc2nnc(NC(=O)Cc3ccccn3)s2)nn1` [compound 670], the “Sensitivity to CB-839 average” value [1] is reported as 82, the “Sensitivity to CB-839 average” value [2] is reported as 86 and the “Sensitivity to CB-839 average” value [3] is reported as 80.667. The “Sensitivity to CB-839 average” value [4] was −68.565, the “Sensitivity to CB-839 average” value [5] was −10 and the “Sensitivity to CB-839 average” value [6] was −38. The “Sensitivity to CB-839 average” value [7] was −30, the “Sensitivity to CB-839 average” value [8] was 8.33 and the “Sensitivity to CB-839 average” value [9] was −34. For the same molecule, the “Sensitivity to CB-839 average” value [10] was 38.75, the “Sensitivity to CB-839 average” value [11] was 22.225 and the “Sensitivity to CB-839 average” value [12] was −13. The “Sensitivity to CB-839 average” value [13] was −28.637, the “Sensitivity to CB-839 average” value [14] was 57.67 and the “Sensitivity to CB-839 average” value [15] was 68.67. The “Sensitivity to CB-839 average” value [16] was 61.5, the “Sensitivity to CB-839 average” value [17] was −47 and the tumor size [18] was “reduced tumor size”. The “Sensitivity to CB-839 average” value [19] was 18.267, the “Sensitivity to CB-839 average” value [20] was −14 and the “Sensitivity to CB-839 average” value [21] was 82.67. The “Sensitivity to CB-839 average” value [22] was −9, the “Sensitivity to CB-839 average” value [23] was −2.67 and the “Sensitivity to CB-839 average” value [24] was 1.33. The “sensitivity to treatment versus wild-type cell lines” value [25] was “more sensitive” and the “Sensitivity to CB-839 average” value [26] was 19.
